“Also recorded” adds a separate entry of the source.

What all share (assay type): physicochemical
Data set [1] is described as follows: Particle size distributions for Rifaximin forms. Particulars: for d10: 10% of the total volume of particles less than the indicated size; for d50: 50% of the total volume of particles less than the indicated size; for d90: 90% of the total volume of particles less than the indicated size.
The nature of data set [2]: Relative humidity stressing at ambient temperature, XRPD of stressed solid. Particulars: 84% RH, RT, 19 days.
The nature of data set [3]: Dynamic vapor sorption (moisture sorption, moisture balance) with post-sorption XRPD. Particulars: for weight loss from 95 to 5% RH: desorption 95-5% RH; for post-moisture sorption (post-MB / post-DVS) XRPD result: solid after DVS cycle; for weight gain from 5 to 95% RH: sorption 5-95% RH; for overall weight loss in moisture sorption: whole sorption/desorption cycle. Here is the method:
Automated vapor sorption (VS) data were collected on a VTI SGA-100 Vapor Sorption Analyzer. NaCl and PVP were used as calibration standards. Samples were not dried prior to analysis. […] The equilibrium criterion used for analysis was less than 0.0100% weight change in 5 minutes with a maximum equilibration time of 3 hours. Data were not corrected for the initial moisture content of the samples.
Automated dynamic vapor sorption (DVS) data were collected on a VTI SGA-100 Vapor Sorption Analyzer. NaCl and PVP were used as calibration standards. Samples were not dried prior to analysis. […] The equilibrium criterion used for analysis was less than 0.0100% weight change in 5 minutes with a maximum equilibration time of 3 hours.

The nature of data set [4]: Ambient storage / exposure to ambient conditions, XRPD. To be noted: for XRPD result after ambient storage: 8 days of ambient storage, large-scale sample. The text has this: Form θ drying and physical stability evaluation was not formally included in the protocol. […] The initial sample was generated from nitrogen drying of Form ζ. The initial XRPD pattern was acquired utilizing parameters not consistent with the other data acquisition.

The mark [5] stands for this setting: listed as post-drying rifaximin Form κ.
[6] abbreviates: listed as As-Prepared Rifaximin Form κ.

Consider `CO[C@H]1/C=C/O[C@@]2(C)Oc3c(C)c(O)c4c(O)c(c5c(nc6cc(C)ccn65)c4c3C2=O)NC(=O)/C(C)=C\C=C\[C@H](C)[C@H](O)[C@@H](C)[C@@H](O)[C@@H](C)[C@H](OC(C)=O)[C@@H]1C` [As received, rifaximin], for which, in data set [1], the d10 stood at 0.399 μm, the d50 came out at 8.629 μm and the d90 worked out at 33.891 μm.
The corresponding values for `CO[C@H]1/C=C/O[C@@]2(C)Oc3c(C)c(O)c4c(O)c(c5c(nc6cc(C)ccn65)c4c3C2=O)NC(=O)/C(C)=C\C=C\[C@H](C)[C@H](O)[C@@H](C)[C@@H](O)[C@@H](C)[C@H](OC(C)=O)[C@@H]1C` [η, rifaximin] are 3.857 μm, 79.844 μm and 290.353 μm.
With `CO[C@H]1/C=C/O[C@@]2(C)Oc3c(C)c(O)c4c(O)c(c5c(nc6cc(C)ccn65)c4c3C2=O)NC(=O)/C(C)=C\C=C\[C@H](C)[C@H](O)[C@@H](C)[C@@H](O)[C@@H](C)[C@H](OC(C)=O)[C@@H]1C` [Post-Drying Rifaximin Form κ, rifaximin], in data set [2], the “XRPD result after humidity stress” value is “Disordered κ”. In data set [3], the “weight loss from 95 to 5% RH” value was 11.0% wt lost from 95%-5% RH, the “post-moisture sorption (post-MB / post-DVS) XRPD result” value is given as “Disordered κ”, the “weight gain from 5 to 95% RH” value is reported as 7.7% wt gain from 5%-95% RH and the “overall weight loss in moisture sorption” value was “approximately 3.3%”. In addition, in data set [3] (setting [5]), the “weight loss from 95 to 5% RH” value stood at 11%, the “post-moisture sorption (post-MB / post-DVS) XRPD result” value is “disordered” and the “weight gain from 5 to 95% RH” value is on record as 7.7%. Moreover, in data set [3] (initial equilibration at 5% RH), the “weight loss upon equilibration at 5% RH” value was 0.1% wt loss upon equilibration at 5% RH. Further, in data set [3] (initial equilibration at 5% RH, listed as post-drying rifaximin Form κ), the “weight loss upon equilibration at 5% RH” value came to 0.1%.
On to `CO[C@H]1/C=C/O[C@@]2(C)Oc3c(C)c(O)c4c(O)c(c5c(nc6cc(C)ccn65)c4c3C2=O)NC(=O)/C(C)=C\C=C\[C@H](C)[C@H](O)[C@@H](C)[C@@H](O)[C@@H](C)[C@H](OC(C)=O)[C@@H]1C` [Form θ, rifaximin], for which, in data set [4], the “XRPD result after ambient storage” value is on record as “remained Form θ”. In addition, the “XRPD result after ambient storage” value in data set [4] (listed as Rifaximin Form θ) is on record as “θ (after 8 days of ambient storage)”. For the same molecule, in data set [4] (reanalyzed within hours, nitrogen-dried sample), the “XRPD result on reanalysis” value is reported as “conversion to Form ι”. In data set [3] (listed as Rifaximin Form θ), the “weight loss from 95 to 5% RH” value is reported as 5.826% wt lost from 95%-5% RH, the “post-moisture sorption (post-MB / post-DVS) XRPD result” value is “ι” and the “weight gain from 5 to 95% RH” value is on record as 5.733% wt gain from 5%-95% RH. Further, in data set [3] (listed as rifaximin Form θ), the “weight loss from 95 to 5% RH” value is given as 5.8%, the “post-moisture sorption (post-MB / post-DVS) XRPD result” value is reported as “Form ι; also recorded: Form t”, the “weight gain from 5 to 95% RH” value is reported as 5.7% and the “overall weight loss in moisture sorption” value is recorded as “approximately 7.4%”. In addition, the “weight loss upon equilibration at 5% RH” value in data set [3] (initial equilibration at 5% RH, listed as rifaximin Form θ) was 7.3%. Also, the “wt change upon equilibration at 5% RH” value in data set [3] (signed change, initial equilibration at 5% RH) is −7.314% wt change upon equilibration at 5% RH.
As for `C1CNCCN1.CC#N.COC1C=COC2(C)Oc3c(C)c(O)c4c(O)c(c5c(nc6cc(C)ccn65)c4c3C2=O)NC(=O)C(C)=CC=CC(C)C(O)C(C)C(O)C(C)C(OC(C)=O)C1C.COC1C=COC2(C)Oc3c(C)c(O)c4c(O)c(c5c(nc6cc(C)ccn65)c4c3C2=O)NC(=O)C(C)=CC=CC(C)C(O)C(C)C(O)C(C)C(OC(C)=O)C1C` (centres unmarked) [cocrystal 2, rifaximin:piperazine cocrystal 2], the “behaviour upon exposure to ambient conditions” value in data set [4] is reported as “rapidly desolvates”. The “form conversion after exposure to ambient conditions” value is “conversion to material similar to cocrystal 1, but exhibiting broad peaks with additional peaks at approximately 5 and 17°2θ” in data set [4] (longer exposure (ex. 12 days)); “convert to cocrystal 1” in data set [4] (relatively short exposure (ex. 5-6 hours)).
In the case of `CO[C@H]1/C=C/O[C@@]2(C)Oc3c(C)c(O)c4c(O)c(c5c(nc6cc(C)ccn65)c4c3C2=O)NC(=O)/C(C)=C\C=C\[C@H](C)[C@H](O)[C@@H](C)[C@@H](O)[C@@H](C)[C@H](OC(C)=O)[C@@H]1C` [Form κ, rifaximin], in data set [3] (setting [6]), the “weight loss from 95 to 5% RH” value was 12% wt loss from 95 to 5% RH, the “post-moisture sorption (post-MB / post-DVS) XRPD result” value is “Disordered”, the “weight gain from 5 to 95% RH” value is reported as 4.6% wt gain from 5 to 95% RH and the “overall weight loss in moisture sorption” value is “Overall wt loss = 14. 9% (equivalent to ~2 moles of IPA)”. Besides, in data set [3] (listed as rifaximin Form κ), the “weight loss from 95 to 5% RH” value is 12%, the “post-moisture sorption (post-MB / post-DVS) XRPD result” value is “disordered”, the “weight gain from 5 to 95% RH” value worked out at 4.6% and the “overall weight loss in moisture sorption” value is on record as “approximately 14.9%”. In data set [3] (initial equilibration at 5% RH, listed as As-Prepared Rifaximin Form κ), the “weight loss upon equilibration at 5% RH” value is reported as 7.5% wt loss upon equilibration at 5% RH. Also, the “weight loss upon equilibration at 5% RH” value in data set [3] (initial equilibration at 5% RH, listed as rifaximin Form κ) was 7.5%. In data set [1], the d10 amounted to 15.551 μm, the d50 came to 90.684 μm and the d90 is on record as 225.815 μm.

Values taken from patent US8513275B2 (Salix Pharmaceuticals, Ltd, priority 2010, dated 2013).
